The Ki is a dissociation constant, usually derived from enzyme kinetics or from competition with a known ligand.

In the first assay the target is T1, human cloned 5-HT6 receptors (Homo sapiens, UniProt P50406).
T1 construct: expressed in transfected cells; host or cells: HeLa cells
T1 sequence (P50406 whole entry): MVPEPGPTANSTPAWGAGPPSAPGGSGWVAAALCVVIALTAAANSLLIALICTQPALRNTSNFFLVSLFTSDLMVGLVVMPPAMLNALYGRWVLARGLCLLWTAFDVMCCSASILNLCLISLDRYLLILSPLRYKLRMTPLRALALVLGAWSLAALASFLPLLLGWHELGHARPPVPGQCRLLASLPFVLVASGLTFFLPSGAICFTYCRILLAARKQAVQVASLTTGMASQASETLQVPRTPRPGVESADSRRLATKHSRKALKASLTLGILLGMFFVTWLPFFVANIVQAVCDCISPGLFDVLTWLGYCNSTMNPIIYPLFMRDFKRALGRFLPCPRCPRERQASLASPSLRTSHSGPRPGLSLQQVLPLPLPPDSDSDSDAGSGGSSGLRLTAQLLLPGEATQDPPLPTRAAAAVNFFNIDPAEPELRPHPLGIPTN
Description: 5-HT6 binding affinity, [3H]-LSD displacement.
Details: not given
As to the method: The affinity of test compounds for the serotonin 5-HT6 receptor is evaluated in the following manner. Cultured Hela cells expressing human cloned 5-HT6 receptors are harvested and centrifuged at low speed (1,000×g) for 10.0 min to remove the culture media. The harvested cells are suspended in half volume of fresh physiological phosphate buffered saline solution and recentrifuged at the same speed. This operation is repeated. The collected cells are then homogenized in ten volumes of 50 mM Tris.HCl (pH 7.4) and 0.5 mM EDTA. The homogenate is centrifuged at 40,000×g for 30.0 min and the precipitate is collected. The obtained pellet is resuspended in 10 volumes of Tris.HCl buffer and recentrifuged at the same speed. The final pellet is suspended in a small volume of Tris.HCl buffer and the tissue protein content is determined in aliquots of 10–25 μl volumes. Bovine Serum Albumin is used as the standard in the protein determination according to the method described in Lowry et al., J. Biol. Chem., 193:265 (1951). The volume of the suspended cell membranes is adjusted to give a tissue protein concentration of 1.0 mg/ml of suspension. The prepared membrane suspension (10 times concentrated) is aliquoted in 1.0 ml volumes and stored at −70° C. until used in subsequent binding experiments.
The reaction is allowed to proceed in the dark for 120 min at room temperature, at which time, the bound ligand-receptor complex is filtered off on a 96 well unifilter with a Packard Filtermate® 196 Harvester. The bound complex caught on the filter disk is allowed to air dry and the radioactivity is measured in a Packard TopCount® equipped with six photomultiplier detectors, after the addition of 40.0 μl Microscint®−20 scintillant to each shallow well. The unifilter plate is heat-sealed and counted in a PackardTopCount® with a tritium efficiency of 31.0%.
Binding in the presence of varying concentrations of test compound is expressed as a percentage of specific binding in the absence of test compound. The results are plotted as log % bound versus log concentration of test compound. […] A linear regression line of data points is plotted, from which the IC50 value is determined and the Ki value is determined based upon the following equation: Ki=IC50/(1+L/KD) where L is the concentration of the radioactive ligand used and KD is the dissociation constant of the ligand for the receptor, both expressed in nM.
`NCCc1cn(S(=O)(=O)c2ccccc2)c2sccc12` [Example 8, 2-[6-(phenylsulfonyl)-6H-thieno[2,3-b]pyrrol-4-yl]ethylamine] gave a Ki of 7.5 ± 0.9 nM.

The assay is the same for the next values; noted with them: membranes of Hela cells expressing human cloned 5-HT6 receptors; [3H]-LSD 3.0 nM; 120 min, room temperature; read-out: 5-HT6 Binding Ki.
Turning to “2-{[4-(2-chlorophenyl)sulfonyl]-4H-thieno[3,2-b]pyrrol-6-yl}ethylamine [Example 69]”, the Ki stood at 2.7 ± 0.2 nM.

Take “2-{[4-(3-chlorophenyl)sulfonyl]-4H-thieno[3,2-b]pyrrol-6-yl}ethylamine [Example 65]”: the Ki worked out at 2.7 ± 0.1 nM. Still for that read-out and setting: for “2-{[6-(2,6-dichloroimidazo[2,1-b][1,3]thiazol-5-yl)sulfonyl]-6H-thieno[2,3-b]pyrrol-4-yl}-ethylamine [Example 21]” the value was 21.3 ± 1.5 nM; for “2-{[6-(2-chloroimidazo[1,2-a]pyrid-3-yl)sulfonyl]-6H-thieno[2,3-b]pyrrol-4-yl}-ethylamine [Example 20]”, 11.3 ± 0.3 nM. On the same count and under the same terms, for “2-{[6-(2-chlorophenyl)sulfonyl]-6H-thieno[2,3-b]pyrrol-4-yl}ethylamine [Example 18]” the value was 13 ± 1.5 nM. Same read-out and setting: for “2-{[6-(3-Chlorophenyl)sulfonyl]-6H-thieno[2,3-b]pyrrol-4-yl}ethylamine [Example 10]” the value was 4.3 ± 0.5 nM; for “2-{[6-(3-chloro-2-methylphenyl)sulfonyl]-6H-thieno[2,3-b]pyrrol-4-yl}ethylamine [Example 34]”, 13.3 ± 1.5 nM. Consider “2-{[6-(4-chlorophenyl)sulfonyl]-6H-thieno[2,3-b]pyrrol-4-yl}ethylamine [Example 22]”, for which the Ki is 13.3 ± 0.7 nM. Still for that read-out and setting: in the case of “2-{[6-(5-Chlorothien-2-yl)sulfonyl]-6H-thieno[2,3-b]pyrrol-4-yl}ethylamine [Example 11]” it was 4.9 ± 0.8 nM.

As for “2-{[6-(6-Chloroimidazo[2,1-b][1,3]thiazol-5-yl)sulfonyl]-6H-thieno[2,3-b]pyrrol-4-yl}-ethylamine [Example 12]”, the Ki was found to be 2.1 ± 0.1 nM. Take `NCCc1cn(S(=O)(=O)c2cccc(C(F)(F)F)c2)c2sccc12` [Example 9, 2-{[6-(3-trifluoromethyl)phenylsulfonyl]-6H-thieno[2,3-b]pyrrol-4-yl}ethylamine]: the Ki worked out at 8.9 ± 0.7 nM.

For `NCCc1cn(S(=O)(=O)c2ccc3ccccc3c2)c2sccc12` [Example 13, 2-[6-(2-naphthylsulfonyl)-6H-thieno[2,3-b]pyrrol-4-yl]ethylamine], the Ki amounted to 16.7 ± 2.4 nM. The same measure, in the same setting: in the case of `COc1cccc(S(=O)(=O)n2cc(CCN)c3ccsc32)c1` [Example 14, 2-{[6-(3-methoxyphenyl)sulfonyl]-6H-thieno[2,3-b]pyrrol-4-yl}ethylamine] it was 2.3 ± 0.1 nM; in that of `Cc1c(S(=O)(=O)n2cc(CCN)c3ccsc32)sc2ccc(Cl)cc12` [Example 15, 2-{[6-(5-chloro-3-methylbenzo[b]thien-2-yl)sulfonyl]-6H-thieno[2,3-b]pyrrol-4-yl}-ethylamine], 102 ± 5.7 nM. The same measure, in the same setting: in the case of `NCCc1cn(S(=O)(=O)c2ccccc2F)c2sccc12` [Example 16, 2-{[6-(2-fluorophenyl)sulfonyl]-6H-thieno[2,3-b]pyrrol-4-yl}ethylamine] it was 12 ± 1.2 nM.

For `NCCc1cn(S(=O)(=O)c2cccc(F)c2)c2sccc12` [Example 17, 2-{[6-(3-fluorophenyl)sulfonyl]-6H-thieno[2,3-b]pyrrol-4-yl}ethylamine], the Ki is 9.3 ± 0.7 nM. Turning to `NCCc1cn(S(=O)(=O)c2cnc3sccn23)c2sccc12` [Example 19, 2-{[6-(imidazo[2,1-b][1,3]thiazol-5-yl)sulfonyl]-6H-thieno[2,3-b]pyrrol-4}ethylamine], the Ki was found to be 3.4 ± 0.6 nM. On the same count and under the same terms, for `NCCc1cn(S(=O)(=O)c2cccc(Cl)c2Cl)c2sccc12` [Example 23, 2-{[6-(2,3-dichlorophenyl)sulfonyl)-6H-thieno[2,3-b]pyrrol-4-yl}ethylamine] the value was 7.1 ± 0.2 nM.

For the compound `NCCc1cn(S(=O)(=O)c2cccc(Br)c2)c2sccc12` [Example 24, 2-{[6-(3-bromophenyl)sulfonyl]-6H-thieno[2,3-b]pyrrol-4-yl}ethylamine], the Ki is 9 ± 0.5 nM.

These data come from patent US7220756B2, “N-sulfonylheterocyclopyrrolyl-alkylamine compounds as 5-hydroxytryptamine-6 ligands” (Wyeth, priority 2003, dated 2007).
